Source: article PMC12162337, “Vitexicarpin suppresses colorectal and non-small cell lung cancer via selective inhibition of Anoctamin 1” (Frontiers in Pharmacology, 2025)

Legend:
Type in all cases: cell-based
CFTR = target: T1, CFTR (Homo sapiens, UniProt P13569); experiment: short-circuit current (Ussing chamber), forskolin-activated; complete block at […]
T1 construct: CFTR-expressing FRT cells

hERG channel = target: T2, hERG channel (Homo sapiens, UniProt Q12809); experiment: automated patch clamp (PatchLiner), hERG tail current
T2 construct: gene KCNH2; hERG-overexpressing HEK cells

[1] = target: T3, Anoctamin 1 (ANO1, TMEM16A) (Homo sapiens, UniProt Q5XXA6); experiment: YFP iodide-influx quenching assay and short-circuit current (Ussing chamber)
T3 construct: endogenous ANO1 in PC9-YFP cells; ANO1-expressing FRT cells
T3 sequence (Q5XXA6 1-986): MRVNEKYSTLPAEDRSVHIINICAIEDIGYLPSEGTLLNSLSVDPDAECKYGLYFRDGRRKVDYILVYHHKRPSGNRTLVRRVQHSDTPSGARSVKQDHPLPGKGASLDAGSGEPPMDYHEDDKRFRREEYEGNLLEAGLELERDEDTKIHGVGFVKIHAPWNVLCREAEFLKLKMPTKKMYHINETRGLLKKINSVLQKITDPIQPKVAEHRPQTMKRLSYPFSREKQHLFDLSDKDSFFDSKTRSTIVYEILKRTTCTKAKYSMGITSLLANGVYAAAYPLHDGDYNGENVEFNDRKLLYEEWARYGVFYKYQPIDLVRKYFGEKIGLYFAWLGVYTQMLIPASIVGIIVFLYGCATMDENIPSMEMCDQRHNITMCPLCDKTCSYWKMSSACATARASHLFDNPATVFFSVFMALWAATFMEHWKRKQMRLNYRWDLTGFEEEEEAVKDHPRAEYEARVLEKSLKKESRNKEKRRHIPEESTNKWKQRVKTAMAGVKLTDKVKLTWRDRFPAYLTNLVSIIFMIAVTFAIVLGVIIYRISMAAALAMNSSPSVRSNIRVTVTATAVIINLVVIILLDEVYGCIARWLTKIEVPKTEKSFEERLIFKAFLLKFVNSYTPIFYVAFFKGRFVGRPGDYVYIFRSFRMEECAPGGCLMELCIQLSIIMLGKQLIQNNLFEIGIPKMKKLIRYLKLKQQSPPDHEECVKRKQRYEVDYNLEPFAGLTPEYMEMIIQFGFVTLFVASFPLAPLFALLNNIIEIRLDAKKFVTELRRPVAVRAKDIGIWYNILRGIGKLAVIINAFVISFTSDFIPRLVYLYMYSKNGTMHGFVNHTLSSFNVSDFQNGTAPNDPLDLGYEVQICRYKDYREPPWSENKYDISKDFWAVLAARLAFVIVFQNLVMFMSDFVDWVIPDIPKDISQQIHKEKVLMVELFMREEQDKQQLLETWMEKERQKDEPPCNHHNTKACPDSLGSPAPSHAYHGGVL

T2 sequence (Q12809 whole entry): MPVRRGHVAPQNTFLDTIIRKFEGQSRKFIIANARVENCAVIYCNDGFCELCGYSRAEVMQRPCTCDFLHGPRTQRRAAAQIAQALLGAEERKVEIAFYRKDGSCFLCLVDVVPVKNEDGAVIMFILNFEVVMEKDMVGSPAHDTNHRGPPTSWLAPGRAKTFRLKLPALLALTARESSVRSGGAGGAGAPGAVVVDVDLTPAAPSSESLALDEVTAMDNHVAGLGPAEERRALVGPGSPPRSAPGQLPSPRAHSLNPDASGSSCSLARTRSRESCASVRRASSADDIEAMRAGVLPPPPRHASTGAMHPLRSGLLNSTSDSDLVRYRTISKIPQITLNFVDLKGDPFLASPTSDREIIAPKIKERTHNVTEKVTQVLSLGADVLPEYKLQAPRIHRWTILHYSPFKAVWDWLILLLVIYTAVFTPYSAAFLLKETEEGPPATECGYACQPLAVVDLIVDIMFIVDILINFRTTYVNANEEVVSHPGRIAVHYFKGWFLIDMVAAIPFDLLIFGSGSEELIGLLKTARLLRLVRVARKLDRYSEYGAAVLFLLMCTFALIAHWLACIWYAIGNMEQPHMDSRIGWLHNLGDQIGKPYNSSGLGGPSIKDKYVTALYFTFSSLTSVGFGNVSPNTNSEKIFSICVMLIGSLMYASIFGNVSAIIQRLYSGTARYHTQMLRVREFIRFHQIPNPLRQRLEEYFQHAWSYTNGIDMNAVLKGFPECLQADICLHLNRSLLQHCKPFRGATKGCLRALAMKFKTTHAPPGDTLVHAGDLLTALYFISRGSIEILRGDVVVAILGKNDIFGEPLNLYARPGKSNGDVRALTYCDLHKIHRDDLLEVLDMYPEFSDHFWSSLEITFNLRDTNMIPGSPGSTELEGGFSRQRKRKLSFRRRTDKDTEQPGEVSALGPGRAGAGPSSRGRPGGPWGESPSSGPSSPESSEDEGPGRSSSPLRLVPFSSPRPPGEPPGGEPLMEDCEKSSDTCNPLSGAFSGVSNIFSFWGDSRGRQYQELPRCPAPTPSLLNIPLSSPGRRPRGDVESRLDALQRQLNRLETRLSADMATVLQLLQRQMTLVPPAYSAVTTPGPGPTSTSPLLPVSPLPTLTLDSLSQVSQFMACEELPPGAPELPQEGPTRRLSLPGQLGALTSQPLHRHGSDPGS
T1 sequence (P13569 whole entry): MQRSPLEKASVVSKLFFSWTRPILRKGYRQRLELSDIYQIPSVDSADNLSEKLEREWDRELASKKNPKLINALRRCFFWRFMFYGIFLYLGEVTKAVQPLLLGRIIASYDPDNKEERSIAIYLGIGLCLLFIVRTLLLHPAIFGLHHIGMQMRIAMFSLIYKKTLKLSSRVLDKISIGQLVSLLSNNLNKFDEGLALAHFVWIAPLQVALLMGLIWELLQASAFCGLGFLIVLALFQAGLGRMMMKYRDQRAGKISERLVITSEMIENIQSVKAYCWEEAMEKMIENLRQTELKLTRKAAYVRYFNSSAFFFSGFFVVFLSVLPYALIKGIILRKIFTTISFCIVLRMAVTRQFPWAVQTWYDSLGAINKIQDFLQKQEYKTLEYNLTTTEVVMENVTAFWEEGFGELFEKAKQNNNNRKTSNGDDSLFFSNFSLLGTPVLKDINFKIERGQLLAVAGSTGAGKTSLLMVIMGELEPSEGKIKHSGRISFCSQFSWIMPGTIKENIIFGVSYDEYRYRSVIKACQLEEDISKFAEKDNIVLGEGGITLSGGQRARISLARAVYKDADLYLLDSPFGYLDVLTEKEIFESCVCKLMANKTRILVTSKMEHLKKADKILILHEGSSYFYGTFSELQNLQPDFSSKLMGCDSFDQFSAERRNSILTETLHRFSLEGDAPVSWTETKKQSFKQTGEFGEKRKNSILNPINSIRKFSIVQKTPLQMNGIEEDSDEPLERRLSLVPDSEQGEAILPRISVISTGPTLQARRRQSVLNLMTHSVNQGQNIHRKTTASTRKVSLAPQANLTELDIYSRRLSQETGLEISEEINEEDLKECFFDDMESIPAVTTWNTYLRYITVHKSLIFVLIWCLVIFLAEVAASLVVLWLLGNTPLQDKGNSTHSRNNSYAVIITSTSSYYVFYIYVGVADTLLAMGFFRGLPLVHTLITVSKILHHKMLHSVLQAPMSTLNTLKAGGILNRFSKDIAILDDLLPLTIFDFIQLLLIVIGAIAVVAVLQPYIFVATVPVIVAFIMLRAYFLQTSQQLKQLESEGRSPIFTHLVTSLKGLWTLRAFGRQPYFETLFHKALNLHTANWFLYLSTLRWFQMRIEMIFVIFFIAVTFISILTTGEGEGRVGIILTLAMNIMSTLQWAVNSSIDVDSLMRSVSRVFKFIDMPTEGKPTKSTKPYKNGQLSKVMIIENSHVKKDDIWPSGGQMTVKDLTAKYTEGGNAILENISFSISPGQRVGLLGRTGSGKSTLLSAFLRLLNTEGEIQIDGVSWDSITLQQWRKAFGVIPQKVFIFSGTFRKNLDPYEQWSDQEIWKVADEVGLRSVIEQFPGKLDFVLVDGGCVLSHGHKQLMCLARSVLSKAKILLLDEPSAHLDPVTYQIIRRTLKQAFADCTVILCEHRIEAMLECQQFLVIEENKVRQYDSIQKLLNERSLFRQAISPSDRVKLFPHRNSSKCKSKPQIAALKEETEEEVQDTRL

Structure (SMILES): O=C(O)c1ccc(/C=C2\SC(=S)N(c3cccc(C(F)(F)F)c3)C2=O)cc1 [CFTRinh-172]
- short-circuit current (Ussing chamber), forskolin-activated; complete block at 1 (CFTR): 10 µM

Structure (SMILES): COc1ccc(-c2oc3cc(OC)c(OC)c(O)c3c(=O)c2OC)cc1O [vitexicarpin, 3′,5-dihydroxy-3,4′,6,7-tetramethoxyflavone]
- IC50 (hERG channel): 35.4 µM
- YFP iodide-influx quenching assay and short-circuit current (Ussing chamber) [1]: vitexicarpin inhibited ANO1 activation in a dose-dependent manner (Figure 2A)
